Results reported in US7618816B2, “Metal-binding therapeutic peptides” (Ontherix, Inc., priority 2005, dated 2009).
Where no end group is shown, it is not given here.

Columns and labels:
Experiment in all cases: Uptake of SA-HRP::MBD peptide complexes
Assay type in all cases: cell-based, human
[1] = test system: 231
Description: (§1) HEK293 kidney cell line and 54 tumor cell lines obtained from the National Cancer Institute and passaged in RPMI1640 cell culture medium supplemented with 10% fetal bovine serum and 10 uM FeCl2. Uptake of streptavidin-horseradish peroxidase (SA-HRP) conjugate and of various SA-HRP::MBD peptide complexes was determined as described (Singh et al. J Biol Chem. 279 (1):477-87 [2004]) using biotinylated MBD9 ([…]) (SEQ ID NO: 10) and MBD21 ([…]) (SEQ ID NO: 4) peptides and SA-HRP. Nuclear and cytoplasmic localization of these proteins was also determined in each case. […] In order to establish the underlying molecular mechanism for this variability, we cross-linked MBD21 peptide to the following cell surface markers at 4 degrees Celsius as previously described (Singh et al. J Biol Chem. 279 (1):477-87 [2004]): transferrin receptor 1, caveolin 1, PCNA, integrins alpha v, 2, 5 and 6, integrins beta 1, 3 and 5. […] Based on the strength of these correlations, it was possible to derive crude predictive formulae for MBD-mediated uptake based on the rate of cross-linking to surface markers. Such predictive formulas could form the basis for a diagnostic procedure to select appropriate targets for MBD-based therapies.

[2] = test system: 786-O
Description: as §1

[3] = test system: A2780
Description: as §1

[4] = test system: A498
Description: as §1

[5] = test system: A549
Description: as §1

[6] = test system: A704
Description: as §1

[7] = test system: ACHN
Description: as §1

[8] = test system: BT-549
Description: as §1

[9] = test system: CAKI-1
Description: as §1

[10] = test system: COLO 205
Description: as §1

[11] = test system: HCC 2998
Description: as §1

[12] = test system: HCT-116
Description: as §1

[13] = test system: HOP 18
Description: as §1

[14] = test system: HOP 62
Description: as §1

[15] = test system: HOP 92
Description: as §1

[16] = test system: HT-29
Description: as §1

[17] = test system: IGR-OV1
Description: as §1

[18] = test system: KM12
Description: as §1

[19] = test system: LOVO
Description: as §1

[20] = test system: Lewis Lung
Description: as §1

[21] = test system: MX-1
Description: as §1

[22] = test system: NCI-H23
Description: as §1

[23] = test system: NCI-H522
Description: as §1

[24] = test system: OVCAR-3
Description: as §1

[25] = test system: OVCAR-5
Description: as §1

[26] = test system: OVCAR-8
Description: as §1

[27] = test system: PC-3
Description: as §1

[28] = test system: SK-0V-3
Description: as §1

[29] = test system: SN12C
Description: as §1

[30] = test system: SW-620
Description: as §1

[31] = test system: TK-10
Description: as §1

[32] = test system: WIDR
Description: as §1

Sequence: KKGFYKKKQCRPSKGRKRGFCWAVDKYG (cysteine pairing not given here; also: biotinylated (position not given here), complexed with SA-HRP) [MBD21]
- SA-HRP uptake, Cyt. ([1]; 231, cytoplasmic): 3.4 ng
- SA-HRP uptake, Nuc. ([1]; 231, nuclear): 1.1 ng
- SA-HRP uptake, Cyt. ([2]; cytoplasmic): 1.8 ng
- SA-HRP uptake, Nuc. ([2]; nuclear): 4.8 ng
- SA-HRP uptake, Cyt. ([3]; A2780, cytoplasmic): 7.5 ng
- SA-HRP uptake, Nuc. ([3]; A2780, nuclear): 1.0 ng
- SA-HRP uptake, Cyt. ([4]; A498, cytoplasmic): 35.3 ng
- SA-HRP uptake, Nuc. ([4]; A498, nuclear): 33.4 ng
- SA-HRP uptake, Cyt. ([5]; A549, cytoplasmic): 4.4 ng
- SA-HRP uptake, Nuc. ([5]; A549, nuclear): 1.3 ng
- SA-HRP uptake, Cyt. ([6]; A704, cytoplasmic): 4.5 ng
- SA-HRP uptake, Nuc. ([6]; A704, nuclear): 1.2 ng
- SA-HRP uptake, Cyt. ([7]; cytoplasmic): 8.0 ng
- SA-HRP uptake, Nuc. ([7]; nuclear): 3.1 ng
- SA-HRP uptake, Cyt. ([8]; BT-549, cytoplasmic): 4.8 ng
- SA-HRP uptake, Nuc. ([8]; BT-549, nuclear): 3.3 ng
- SA-HRP uptake, Cyt. ([9]; CAKI-1, cytoplasmic): 2.8 ng
- SA-HRP uptake, Nuc. ([9]; CAKI-1, nuclear): 1.0 ng
- SA-HRP uptake, Cyt. ([10]; COLO 205, cytoplasmic): 2.1 ng
- SA-HRP uptake, Nuc. ([10]; COLO 205, nuclear): 0.9 ng
- SA-HRP uptake, Cyt. ([11]; HCC 2998, cytoplasmic): 2.1 ng
- SA-HRP uptake, Nuc. ([11]; HCC 2998, nuclear): 2.4 ng
- SA-HRP uptake, Cyt. ([12]; HCT-116, cytoplasmic): 12.4 ng
- SA-HRP uptake, Nuc. ([12]; HCT-116, nuclear): 9.5 ng
- SA-HRP uptake, Cyt. ([13]; HOP 18, cytoplasmic): 10.3 ng
- SA-HRP uptake, Nuc. ([13]; HOP 18, nuclear): 3.1 ng
- SA-HRP uptake, Cyt. ([14]; HOP 62, cytoplasmic): 4.1 ng
- SA-HRP uptake, Nuc. ([14]; HOP 62, nuclear): 0.2 ng
- SA-HRP uptake, Cyt. ([15]; HOP 92, cytoplasmic): 1.5 ng
- SA-HRP uptake, Nuc. ([15]; HOP 92, nuclear): 1.6 ng
- SA-HRP uptake, Cyt. ([16]; HT-29, cytoplasmic): 3.5 ng
- SA-HRP uptake, Nuc. ([16]; HT-29, nuclear): 9.5 ng
- SA-HRP uptake, Cyt. ([17]; IGR-OV1, cytoplasmic): 1.9 ng
- SA-HRP uptake, Nuc. ([17]; IGR-OV1, nuclear): 1.0 ng
- SA-HRP uptake, Cyt. ([18]; KM12, cytoplasmic): 2.1 ng
- SA-HRP uptake, Nuc. ([18]; KM12, nuclear): 0.7 ng
- SA-HRP uptake, Cyt. ([19]; cytoplasmic): 8.7 ng
- SA-HRP uptake, Nuc. ([19]; nuclear): 3.8 ng
- SA-HRP uptake, Cyt. ([20]; cytoplasmic): 6.4 ng
- SA-HRP uptake, Nuc. ([20]; nuclear): 3.4 ng
- SA-HRP uptake, Cyt. ([21]; MX-1, cytoplasmic): 8.5 ng
- SA-HRP uptake, Nuc. ([21]; MX-1, nuclear): 3.8 ng
- SA-HRP uptake, Cyt. ([22]; NCI-H23, cytoplasmic): 8.0 ng
- SA-HRP uptake, Nuc. ([22]; NCI-H23, nuclear): 8.7 ng
- SA-HRP uptake, Cyt. ([23]; NCI-H522, cytoplasmic): 5.1 ng
- SA-HRP uptake, Nuc. ([23]; NCI-H522, nuclear): 1.7 ng
- SA-HRP uptake, Cyt. ([24]; OVCAR-3, cytoplasmic): <0.04 ng
- SA-HRP uptake, Nuc. ([24]; OVCAR-3, nuclear): 3.2 ng
- SA-HRP uptake, Cyt. ([25]; OVCAR-5, cytoplasmic): 1.3 ng
- SA-HRP uptake, Nuc. ([25]; OVCAR-5, nuclear): 1.5 ng
- SA-HRP uptake, Cyt. ([26]; OVCAR-8, cytoplasmic): 6.1 ng
- SA-HRP uptake, Nuc. ([26]; OVCAR-8, nuclear): 13.1 ng
- SA-HRP uptake, Cyt. ([27]; PC-3, cytoplasmic): 44.2 ng
- SA-HRP uptake, Nuc. ([27]; PC-3, nuclear): 13.2 ng
- SA-HRP uptake, Cyt. ([28]; SK-0V-3, cytoplasmic): <0.04 ng
- SA-HRP uptake, Nuc. ([28]; SK-0V-3, nuclear): <0.04 ng
- SA-HRP uptake, Cyt. ([29]; cytoplasmic): 6.7 ng
- SA-HRP uptake, Nuc. ([29]; nuclear): 6.4 ng
- SA-HRP uptake, Cyt. ([30]; SW-620, cytoplasmic): 6.3 ng
- SA-HRP uptake, Nuc. ([30]; SW-620, nuclear): 2.3 ng
- SA-HRP uptake, Cyt. ([31]; TK-10, cytoplasmic): 5.0 ng
- SA-HRP uptake, Nuc. ([31]; TK-10, nuclear): 2.2 ng
- SA-HRP uptake, Cyt. ([32]; cytoplasmic): 2.8 ng
- SA-HRP uptake, Nuc. ([32]; nuclear): 1.0 ng
